# In patent US9353140B2, “BQC-G, a tumor-selective anti-cancer prodrug” (priority 2009, dated 2016):
# Where “and” joins values, the source holds several entries; their conditions need not be identical. Equal values may be shown once. Read-outs that look alike come from different tables or passages of the source.
# Assays:
# E. coli β-glucuronidase = E. coli β-glucuronidase (Escherichia coli, UniProt P05804); details: for Kcat / Km: enzymatic hydrolysis by E. coli β-glucuronidase
# [1] = test system: CL1-5 human lung adenocarcinoma cells; assay: In vitro cytotoxicity (3H-thymidine incorporation), CL1-5; format: cell-based
# Method: CL1-5 cells were exposed to the indicated concentrations of drugs with or without the addition of human serum albumin to 40 mg/ml. […] Bars show the SD.
# (§1) The cancer cell lines were from ATCC except for CL1-5 human lung adenocarcinoma which was generous gift from Dr. PC Yang and EJ human bladder carcinoma cells. See Yang, P. C. et al., Characterization of the mucin differentiation in human lung adenocarcinoma cell lines. American journal of respiratory cell and molecular biology 1992, 7, 161-171; Marshall, C. J. et al., Markers of neoplastic transformation in epithelial cell lines derived from human carcinomas. J Natl Cancer Inst 1977, 58, 1743-51.
# (§2) 5000-10000 cells/well in 96 well plate were exposed to graded concentration of the compounds for 48 h in the absence or presence of 40 mg/ml HSA. E. coli β-glucuronidase (1 μg/well) was added with BCC-G in some experiments. The cells were washed twice with PBS and incubated in fresh medium for 24 h before the cells were pulsed with 1 μC/well of ^3H-thimidine for 16 h. Cellular radioactivity in harvested cells was counted on a Topcount scintillation counter and IC50 values were calculated by fitting the data to a sigmoidal dose/response equation.
# LS174T = assay: In vitro cytotoxicity (3H-thymidine incorporation), LS174T; format: cell-based
# Method: as §2
# Water solubility = format: physicochemical
# Method: […] Mixtures were centrifuged for 40 min at 20,000 g at room temperature. A sample from the water layer was analyzed by HPLC and quantified using standard curves generated with pure BQC and BQC-G.
# other cancer cell lines = assay: In vitro cytotoxicity, other cancer cell lines; format: cell-based
# Method: as §2
# [2] = Octanol/water partition coefficient; format: physicochemical; details: for Po/w (octanol/water partition coefficient): Buffer pH 4.5
# Method: Octanol/Water Partition Coefficient
# […] One μg of either BQC or BQC-G was added to a mixture of 250 μl octanol and 250 μl of one of the three water based pre-equilibrated solvents. After mixing for 24 h at RT, the samples were centrifuged 20 min at 10,000×g. Samples of the octanol and water layers were analyzed by HPLC.
# [3] = test system: EJ human bladder carcinoma cells; assay: In vitro cytotoxicity (3H-thymidine incorporation), EJ; format: cell-based
# Description: as §1, §2
# CaSki = assay: In vitro cytotoxicity (3H-thymidine incorporation), CaSki; format: cell-based
# Method: as §2
# [4] = Stability in blood (human plasma/serum, 37° C., 24 h); format: in vitro ADME; details: 24 h at 37° C.
# Method: Normal human plasma was spiked with BQC-G to 5 μM. The mixture was incubated 24 h at 37° C. during which time samples were periodically removed and analyzed by SPE-HPLC.
# human β-glucuronidase = biological target: T1, human β-glucuronidase (Homo sapiens, UniProt P08236); assay: Hydrolysis of BQC-G by human β-glucuronidase; format: biochemical; details: low concentrations of human β-glucuronidase
# T1 sequence (P08236 23-651): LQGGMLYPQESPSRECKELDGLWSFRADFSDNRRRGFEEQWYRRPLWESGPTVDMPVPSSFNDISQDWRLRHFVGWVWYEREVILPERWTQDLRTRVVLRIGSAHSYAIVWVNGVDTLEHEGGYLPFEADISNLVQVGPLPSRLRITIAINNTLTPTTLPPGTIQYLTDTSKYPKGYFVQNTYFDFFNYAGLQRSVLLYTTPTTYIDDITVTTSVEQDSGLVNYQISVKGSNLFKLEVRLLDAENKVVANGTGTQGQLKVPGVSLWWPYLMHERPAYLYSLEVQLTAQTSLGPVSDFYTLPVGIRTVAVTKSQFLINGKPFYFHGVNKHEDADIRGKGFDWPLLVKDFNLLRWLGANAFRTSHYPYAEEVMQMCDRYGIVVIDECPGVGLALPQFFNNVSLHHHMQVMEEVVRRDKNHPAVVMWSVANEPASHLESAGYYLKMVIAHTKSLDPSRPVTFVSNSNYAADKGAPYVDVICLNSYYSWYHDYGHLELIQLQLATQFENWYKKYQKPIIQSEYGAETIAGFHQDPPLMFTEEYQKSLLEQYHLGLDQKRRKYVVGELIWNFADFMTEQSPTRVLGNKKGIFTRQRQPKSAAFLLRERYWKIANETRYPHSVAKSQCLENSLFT
# Description: Hydrolysis of BQC-G by β-glucuronidase
# [5] = Homo sapiens, CL1-5, CL1-5, +HSA (40 mg/ml)
# [6] = Homo sapiens, CL1-5, CL1-5, −HSA
# E. coli β-glucuronidase, sequence (P05804 whole entry): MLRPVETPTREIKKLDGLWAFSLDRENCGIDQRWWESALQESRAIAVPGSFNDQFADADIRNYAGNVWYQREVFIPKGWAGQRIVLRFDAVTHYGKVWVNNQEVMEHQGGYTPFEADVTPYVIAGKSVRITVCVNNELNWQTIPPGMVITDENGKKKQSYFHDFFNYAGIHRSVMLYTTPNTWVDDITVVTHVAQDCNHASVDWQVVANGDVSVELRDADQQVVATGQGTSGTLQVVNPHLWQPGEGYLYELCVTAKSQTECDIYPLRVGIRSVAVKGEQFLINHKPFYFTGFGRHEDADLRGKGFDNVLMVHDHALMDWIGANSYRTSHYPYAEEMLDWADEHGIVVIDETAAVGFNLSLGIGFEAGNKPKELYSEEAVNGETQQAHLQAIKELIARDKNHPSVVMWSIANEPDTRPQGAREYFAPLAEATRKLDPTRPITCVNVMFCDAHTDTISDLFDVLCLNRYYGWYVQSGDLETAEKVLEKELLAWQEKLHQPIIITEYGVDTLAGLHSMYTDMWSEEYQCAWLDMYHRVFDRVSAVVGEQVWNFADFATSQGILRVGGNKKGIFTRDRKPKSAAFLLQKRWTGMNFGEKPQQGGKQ
structure (smiles),measurement,setting,value
"Cc1cc(=O)oc2cc(O[C@@H]3O[C@H](C(=O)O)[C@@H](O)[C@H](O)[C@H]3O)ccc12 [4-MUG, 4-methylumbelliferyl-β-D-glucuronide]",Kcat,E. coli β-glucuronidase,22.2 s⁻¹
same,Km,E. coli β-glucuronidase,80.2 ± 12.4 µM
"CC[C@@]1(O)C(=O)OCc2c1cc1n(c2=O)Cc2cc3c(N)cccc3nc2-1 [9AC, 9-amino-camptothecin]",Cytotoxicity Ratio (IC50 in the presence of HSA to IC50 without HSA),[1],140
same,effect of HSA on cytotoxicity,[1],profound decrease in cytotoxicity
same,IC50,"[1]; CL1-5, +HSA (40 mg/ml)",1370 ± 70 nM
same,IC50,"[1]; CL1-5, −HSA",9.8 ± 0.3 nM
"CC[C@@]1(O)C(=O)OCc2c1cc1n(c2=O)Cc2cc3c(NC(=O)OCc4ccc(O[C@@H]5O[C@H](C(=O)O)[C@@H](O)[C@H](O)[C@H]5O)cc4)cccc3nc2-1 [9ACG, 9-amino-camptothecin-glucuronide]",Cytotoxicity Ratio (IC50 in the presence of HSA to IC50 without HSA),[1],>15
same,IC50,"[1]; CL1-5, +HSA (40 mg/ml)",> 10000 nM
same,IC50,"[1]; CL1-5, −HSA",650 ± 40 nM
same,Kcat,E. coli β-glucuronidase,8.6 s⁻¹
same,Km,E. coli β-glucuronidase,30 µM
"CC[C@@]1(O)C(=O)OCc2c1cc1n(c2=O)Cc2c-1nc1ccc(O)c3c1c2CCC3 [BQC, 5,6-dihydro-4H-benzo[de]quinoline-camptothecin]",Cytotoxicity Ratio (IC50 in the presence of HSA to IC50 without HSA),[1]; CL1-5,9.5
same,IC50,"[1]; CL1-5, +HSA (40 mg/ml)",13 nM
same,IC50,"[1]; CL1-5, −HSA",1.4 nM and 1.37 nM
same,IC50,LS174T,1.31 ± 0.03 nM
same,Solubility,Water solubility; Buffer pH 4.5,0.120 µg/mL
same,Solubility,Water solubility; Buffer pH 7.0,0.200 µg/mL
same,solubility in water-based buffers,Water solubility; pH 4.5,0.125 µg/mL
same,solubility in water-based buffers,Water solubility; pH 7.0,0.2 µg/mL
same,Solubility,Water solubility; water,0.200 µg/mL
same,IC50,other cancer cell lines,1 to 2 nM
same,Po/w (octanol/water partition coefficient),[2],1.67
same,Po/w,[2]; Buffer pH 7.4,1.46
same,Po/w,[2]; water,1.98
same,IC50,[3],1.78 ± 0.08 nM
same,IC50,CaSki,1.25 ± 0.05 nM
CC[C@@]1(O)C(=O)OCc2c1cc1n(c2=O)Cc2c-1nc1ccc(OCc3ccc(O[C@@H]4O[C@H](C(=O)O)[C@@H](O)[C@H](O)[C@H]4O)c([N+](=O)[O-])c3)c3c1c2CCC3 [BQC-G],Cytotoxicity Ratio (IC50 in the presence of HSA to IC50 without HSA),[1]; CL1-5,18.4
same,IC50,"[1]; CL1-5, +HSA (40 mg/ml)",1080 nM
same,IC50,"[1]; CL1-5, in the presence of HSA, hydrolyzed by β-glucuronidase",13 nM
same,IC50,"[1]; CL1-5, without HSA, β-glucuronidase added",1.3 nM
same,IC50,"[1]; CL1-5, −HSA",58 nM and 58.7 nM
same,IC50,LS174T,24.6 ± 2.8 nM
same,Solubility,Water solubility; Buffer pH 7.0,775 µg/mL
same,solubility in water based buffers,Water solubility; pH 7.0,775 µg/mL
same,solubility in water based buffers relative to BQC,Water solubility; versus BQC,about 4000 fold
same,Po/w (octanol/water partition coefficient),[2],−0.44
same,Po/w,[2]; Buffer pH 7.4,−1.01
same,octanol/water partition coefficient,[2]; pH not stated (discussion),about −1
same,Po/w,[2]; water,−0.44
same,stability in human serum,[4],only trace amounts of BQC detected
same,IC50,[3],44.8 ± 0.7 nM
same,hydrolysis to the parental aglycone BQC,human β-glucuronidase,completely hydrolyzed
same,IC50,CaSki,31.2 ± 0.5 nM
same,Kcat,E. coli β-glucuronidase,45.1 s⁻¹
same,Km,E. coli β-glucuronidase,4.6 µM
same,hydrolysis to the parental aglycone BQC,E. coli β-glucuronidase; low concentrations of E. coli β-glucuronidase,completely hydrolyzed
"CC[C@@]1(O)C(=O)OCc2c1cc1n(c2=O)Cc2cc3ccccc3nc2-1 [CPT, camptothecin]",Cytotoxicity Ratio (IC50 in the presence of HSA to IC50 without HSA),[1]; CL1-5,>146
same,effect of HSA on cytotoxicity,"[1]; CL1-5, in the presence of HSA",drastically reduced
same,IC50,[1]; [5],> 3000 nM
same,IC50,[1]; [6],20.5 ± 1.3 nM
same,IC50,LS174T; Homo sapiens,9.7 ± 0.8 nM
same,IC50,[3]; Homo sapiens,21 ± 3.9 nM
same,IC50,"CaSki; Homo sapiens, Ca-Ski",20 ± 2.1 nM
"O=C(O)[C@H]1O[C@@H](Oc2ccc([N+](=O)[O-])cc2)[C@H](O)[C@@H](O)[C@@H]1O [PNPG, p-nitrophenol β-D-glucuronide]",Kcat,E. coli β-glucuronidase,173 s⁻¹
same,Km,E. coli β-glucuronidase,490 ± 84 µM
CCc1c2c(nc3ccc(O)cc13)-c1cc3c(c(=O)n1C2)COC(=O)[C@]3(O)CC [SN-38],Cytotoxicity Ratio (IC50 in the presence of HSA to IC50 without HSA),[1],9.1
same,IC50,"[1]; CL1-5, +HSA (40 mg/ml)",47.9 ± 1.9 nM
same,IC50,"[1]; CL1-5, −HSA",5.25 ± 0.08 nM
CC[C@@]1(O)C(=O)OCc2c1cc1n(c2=O)Cc2cc3c(CN(C)C)c(O)ccc3nc2-1 [topotecan],IC50,[1]; [5],28.4 ± 0.7 nM
same,IC50,[1]; [6],27.8 ± 0.3 nM
